Key:
Assay type in all cases: physicochemical
[1] = Water solubility of sodium salts; conditions: for pH: pH of the sodium salt solution after neutralization
Procedure: Selected N-alkyl pyroglutamic acids are converted into their sodium salt by neutralizing them in water with sodium hydroxide. In general, a known amount of sample is placed in a vial and a known amount of water is added. Sample is neutralized with 25 wt % sodium hydroxide in water until pH is >7. Mild heating (50° C.) is applied when necessary to aid dissolution. The final mass is recorded. The weight percent of the solution is determined by mass of the sodium salt over the total mass of solution, and multiplying by 100. The pH of the solution is recorded after neutralization. No effort was done to prepare a saturated solution.

[2] = Shake foam test (foam height); conditions: sodium salt, 0.1 wt % solution, shaken 20 times, t=0, average of three replicates
Procedure: Foaming profile of the N-alkyl pyroglutamates are evaluated using a shake foam test, and evaluated against sodium laureth sulfate. For each sample, a 0.1 wt % solution is prepared by diluting 50 mg active to 50 g in water. The 0.1 wt % solution is added to a 100 mL graduated cylinder and capped. The cylinder is shaken by hand 20 times, each time the cylinder is inverted and brought back to an upright position. Foam height (in mL) is defined as the highest point of the top layer of the foam in the graduated cylinder. If the top of the foam was not flat, the midpoint of the top of the foam was reported. Foam height is read immediately after the solution settled (t=0). Three replicates are done for each sample, and the reported foam height (in mL) is the average reading of the three replicates.

[3] = Critical micelle concentration (Kibron CMC) and surface tension, Kibron Delta-8 multichannel microtensiometer; conditions: for Kibron CMC: sodium salt in water, twelve two-fold dilutions starting at 1 wt %; for Surface Tension (1%): sodium salt, 1 wt % in water
Procedure: The critical micelle concentration (Kibron CMC) and surface tension of the N-alkyl pyroglutamic acids (as Na^+ salts) and related commercial surfactants were evaluated. For each sample, a total of twelve dilutions starting at 1 wt % were prepared, reducing the concentration in each dilution by half by taking an aliquot of the previous dilution and adding the same amount of water. The surface tension of all 12 dilutions was measured using a Kibron Delta-8 multichannel microtensiometer. Sample volume for each analysis was 50 μL.

CCCCCC(CCC)CN1C(=O)CCC1C(=O)O (stereo not shown) [Example 2]
pH [1]: 7.3 | Shake Foam t = 0 [2]: 11 mL | Kibron CMC [3]: >10000 ppm | Surface Tension (1%) [3]: 34 Dynes/cm

CCCCCCCCCCC(CCCCCCCC)CN1C(=O)CCC1C(=O)O (stereo not shown) [Example 4]
pH [1]: 7.1 | Solubility ([1]; sodium salt in water, neutralized with NaOH, no saturated solution prepared): 15.4 wt % | Shake Foam t = 0 [2]: 29 mL | Kibron CMC [3]: 78 ppm | Surface Tension (1%) [3]: 29 Dynes/cm

CCC(CCCC(C)CCCC(C)C)CCN1C(=O)CCC1C(=O)O (stereo not shown) [Example 1]
pH [1]: 10.0 | Shake Foam t = 0 [2]: 36 mL | Kibron CMC [3]: 625 ppm | Surface Tension (1%) [3]: 38 Dynes/cm

Reference: patent US9260388B2, “Process for preparing alkyl pyroglutamic acids” (DOW GLOBAL TECHNOLOGIES LLC, priority 2011, dated 2016)
